Results taken from patent US20240374631A1, “A COMPOSITION FOR IMPROVING GUT MICROBIOTA, BEHAVIOURAL PATTERN, ALPHA-SYNUCLEIN LEVELS, SLEEP PATTERN AND/OR SERUM MELATONIN” (GN Corporation Co Ltd, priority 2021, published 2024).

System: gut microbiota
Assay: Gut microbiome analysis (16S rRNA sequencing of fecal samples) in STAM model of NASH
Format: in vivo, C57BL/6J mice
Text: The study is reported in accordance with Animal Research: Reporting of In Vivo Experiments (ARRIVE) guidelines. C57BL/6J mice were obtained from Japan SLC, Inc. (Japan). All animals used in this study were cared for under the following guidelines: Act on Welfare and Management of Animals (Ministry of the Environment, Japan, Act No. 105 of Oct. 1, 1973), standards relating to the care and management of laboratory animals and relief of pain (Notice No. 88 of the Ministry of the Environment, Japan, Apr. 28, 2006) and the guidelines for proper conduct of animal experiments (Science Council of Japan, Jun. 1, 2006). Protocol approvals were obtained from SMC Laboratories, Japan's IACUC (Study reference no: […] Mice were maintained in a specific pathogen-free (SPF) facility under controlled conditions of temperature (23±3° C.), humidity (50±20%), lighting (12-hour artificial light and dark cycles; light from 8:00 to 20:00) and air exchange. The STAM model of NASH was induced as previously described [D10]. Mice were given a single subcutaneous injection of 200 μg streptozotocin (STZ, Sigma-Aldrich, USA) solution 2 days after birth and fed with a high-fat diet (HFD, 57 kcal % fat, Cat #HFD32, CLEA Japan, Inc., Japan) from 4-9 weeks of age. All mice develop liver steatosis and diabetes and at […] mice had established steatohepatitis, histologically. Studygroups: There were five study groups, described below. Eight mice were included in each study group. Eight NASH mice were orally administered vehicle supplemented with AFO-202 Beta Glucan at a dose of 1 mg/kg in a volume of 5 mL/kg once daily from 6 to 9 weeks of age. Eight NASH mice were orally administered vehicle supplemented with Telmisartan at a dose of 10 mg/kg once daily from 6 to 9 weeks of age. Frequency: Fecal samples were collected at the 6 weeks of age (before administration) and 9 weeks of age (before sacrifice). Procedure: At 6 weeks of age, fecal samples were collected from each mouse by clean catch method. […] A sterile petri dish was placed on the bench. Gently massage the abdomen, position the bottom of mouse over a fresh petri dish, and collect 1-2 fecal pellets. At sacrifice, fecal samples were aseptically collected from cecum. The tubes with feces were placed on ice immediately. These tubes were snap frozen in liquid nitrogen and stored at -80° C. for shipping. In this analysis, the 16S rRNA sequence data acquired by the next-generation sequencer from the fecal […] was used to perform community analysis using the QIIME2 program for microbial community analysis. The raw read data in FASTQ format output from the next-generation sequencer was trimmed to remove adapter sequences and low QV regions that may be included in the data. Cutadapt was used to remove adapter sequences from DNA sequencing reads. Trimmomatic was used as read trimming tool for Illumina NGS data. The adapter sequence was trimmed using the adapter trimming program “cutadapt” if the Trimming of the region at the end of the read sequence overlapped the corresponding sequence by at least one base (mismatch tolerance: 20%). When reads containing N were present in at least one of Read1 and Read2, both Read1 and Read2 were removed. Trimming of low QV regions was performed on the read data after processing using the QV trimming program “Trimmomatic” under the following conditions. The window of 20 bases is slid from the 5' side, and the area where the average QV is less than 20 is trimmed. After trimming, only the reads with more than 50 bases remaining in both Read1 and Read2 were taken as output. The microbial community analysis based on 16S rRNA sequence was performed on the sequence data trimmed in the previous section using the microbial community analysis program “QIIME2”. The annotation program “sklearn” included in QIIME2 is used to annotate the ASV (OTU) sequences. […]

Compound: CCCc1nc2c(C)cc(-c3nc4ccccc4n3C)cc2n1Cc1ccc(-c2ccccc2C(=O)O)cc1 [Telmisartan]
- Abundance: Family Methanobacteriaceae, Genus Methanobrevibacter, Species — (pre (baseline), table row r429): 0
- Abundance: Family Lachnospiraceae, Genus Other, Species Other (pre (baseline), table row r431): 12
- Abundance: Family Lachnospiraceae, Genus Dorea, Species — (pre (baseline), table row r432): 0
- Abundance: Family Lachnospiraceae, Genus Dorea, Species — (pre (baseline), table row r433): 7
- Abundance: Family Lachnospiraceae, Genus —, Species — (pre (baseline), table row r434): 11
- Abundance: Family Erysipelotrichaceae, Genus —, Species — (pre (baseline), table row r435): 0
- Abundance: Family Other, Genus Other, Species Other (pre (baseline), table row r437): 0
- Abundance: Family Ruminococcaceae, Genus Ruminococcus, Species — (pre (baseline), table row r438): 0
- Abundance: Family Lachnospiraceae, Genus Other, Species Other (pre (baseline), table row r439): 0
- Abundance: Family Erysipelotrichaceae, Genus Clostridum, Species cocleatum (pre (baseline), table row r440): 0
- Abundance: Family Clostridiaceae, Genus —, Species — (pre (baseline), table row r441): 10
- Abundance: Family S24-7, Genus —, Species — (pre (baseline), table row r442): 0
- Abundance: Family Ruminococcaceae, Genus Oscillospira, Species — (pre (baseline), table row r443): 0
- Abundance: Family Erysipelotrichaceae, Genus —, Species — (pre (baseline), table row r446): 0
- Abundance: Family Streptococcaceae, Genus —, Species — (pre (baseline), table row r447): 0
- Abundance: Family Erysipelotrichaceae, Genus —, Species — (pre (baseline), table row r448): 0
- Abundance: Family Turicibacteraceae, Genus Turicibacter, Species — (pre (baseline), table row r449): 0
- Abundance: Family S24-7, Genus —, Species — (pre (baseline), table row r450): 0
- Abundance: Family Ruminococcaceae, Genus Oscillospira, Species — (pre (baseline), table row r451): 0
- Abundance: Family Lachnospiraceae, Genus —, Species — (pre (baseline), table row r452): 0
- Abundance: Family Erysipelotrichaceae, Genus —, Species — (pre (baseline), table row r454): 0
- Abundance: Family Ruminococcaceae, Genus Ruminococcus, Species — (pre (baseline), table row r455): 0
- Abundance: Family Moraxellaceae, Genus Psychrobacter, Species Other (pre (baseline), table row r456): 0
- Abundance: Family Paenibacillaceae, Genus Other, Species Other (pre (baseline), table row r457): 0
- Abundance: Family Lachnospiraceae, Genus Coprococcus, Species — (pre (baseline), table row r458): 0
- Abundance: Family Bacillaceae, Genus Bacillus, Species — (pre (baseline), table row r459): 0
- Abundance: Family Enterococcaceae, Genus Vagococcus, Species — (pre (baseline), table row r460): 0
- Abundance: Family Lachnospiraceae, Genus —, Species — (pre (baseline), table row r462): 0
- Abundance: Family Ruminococcaceae, Genus Oscillospira, Species — (pre (baseline), table row r466): 0
- Abundance: Family Erysipelotrichaceae, Genus —, Species — (pre (baseline), table row r468): 4
- Abundance: Family Other, Genus Other, Species Other (pre (baseline), table row r469): 0
- Abundance: Family Clostridiaceae, Genus Clostridium, Species Other (pre (baseline), table row r470): 0
- Abundance: Family Ruminococcaceae, Genus —, Species — (pre (baseline), table row r473): 3
- Abundance: Family Deferribacteraceae, Genus Mucispirillum, Species schaedleri (pre (baseline), table row r474): 0
- Abundance: Family Turicibacteraceae, Genus Turicibacter, Species — (pre (baseline), table row r475): 0
- Abundance: Family [Mogibacteriaceae], Genus —, Species — (pre (baseline), table row r478): 0
- Abundance: Family Lachnospiraceae, Genus Dorea, Species longicateria (pre (baseline), table row r480): 2
- Abundance: Family Ruminococcaceae, Genus —, Species — (pre (baseline), table row r481): 0
- Abundance: Family Lachnospiraceae, Genus —, Species — (pre (baseline), table row r482): 0
- Abundance Erysipelotrichaceae/Allobaculum/— (pre, line r8): 6375
- Abundance Turicibacteraceae/Turicibacter/— (pre, line r9): 9408
- Abundance Desulfovibrionaceae/—/— (pre, line r10): 3882
- Abundance Clostridiaceae/Other/Other (pre, line r11): 7143
- Abundance Lactobacillaceae/Lactobacillus/— (pre, line r12): 416
- Abundance Streptococcaceae/Lactococeus/— (pre, line r13): 2239
- Abundance Bacteroidaceae/Bacteroides/— (pre, line r14): 1596
- Abundance [Paraprevotellaceae]/[Prevotella]/— (pre, line r15): 1674
- Abundance —/—/— (pre, line r16): 1552
- Abundance Deferribacteraceae/Mucispirillum/schaedleri (pre, line r17): 4795
- Abundance Bacteroidaceae/Bacteroides/acidifaciens (pre, line r18): 983
- Abundance —/—/— (pre, line r19): 853
- Abundance Verrucomicrobiaceae/Akkermansia/muciniphila (pre, line r20): 2305
- Abundance Rikenellaceae/—/— (pre, line r21): 696
- Abundance Enterobacteriaceae/Other/Other (pre, line r22): 17
- Abundance Lactobacillaceae/Lactobacillus/— (pre, line r23): 883
- Abundance S24-7/—/— (pre, line r24): 623
- Abundance Lachnospiraceae/—/— (pre, line r25): 752
- Abundance Peptostreptocpccaceae/—/— (pre, line r26): 1121
- Abundance Lachnospiraceae/[Ruminococcus]/gnavus (pre, line r27): 2041
- Abundance Lachnospiraceae/Coprococeus/— (pre, line r28): 444
- Abundance Bifidobacteriaceae/Bifidobacterium/pseudolongum (pre, line r29): 1317
- Abundance Enterobacteriaceae/Proteus/— (pre, line r30): 0
- Abundance Lactobacillaceae/Lactobacillus/Other (pre, line r31): 64
- Abundance S24-7/—/— (pre, line r32): 740
- Abundance Porphyromonadaceae/Parabacteroides/distasonis (pre, line r33): 320
- Abundance Clostridiaceae/—/— (pre, line r34): 1242
- Abundance —/—/— (pre, line r35): 420
- Abundance Desulfovibrionaceae/Desulfovibrio/— (pre, line r36): 65
- Abundance S24-7/—/— (pre, line r37): 708
- Abundance Coriobacteriaceae/Adlercreutzia/— (pre, line r38): 625
- Abundance S24-7/—/— (pre, line r39): 480
- Abundance Erysipelotrichaceae/Clostridium/cocleatum (pre, line r40): 319
- Abundance Ruminococcaceae/Ruminococcus/— (pre, line r41): 1164
- Abundance Lachnospiraceae/Other/Other (pre, line r43): 481
- Abundance Lachnospiraceae/[Ruminococcus]/gnavus (pre, line r44): 311
- Abundance Turicibacteraceae/Turicibacter/— (pre, line r45): 586
- Abundance Lachnospiraceae/—/— (pre, line r46): 611
- Abundance Bacteroidaceae/Bacteroides/— (pre, line r47): 460
- Abundance Ruminococcaceae/Oscillospira/— (pre, line r48): 293
- Abundance Lachnospiraceae/Roseburia/— (pre, line r50): 488
- Abundance Lachnospiraceae/—/— (pre, line r51): 338
- Abundance S24-7/—/— (pre, line r52): 305
- Abundance Lachnospiraceae/[Ruminococcus]/gnavus (pre, line r53): 123
- Abundance Lachnospiraceae/Coprococcus/— (pre, line r56): 126
- Abundance S24-7/—/— (pre, line r57): 322
- Abundance S24-7/—/— (pre, line r58): 237
- Abundance Lachnospiraceae/Other/Other (pre, line r60): 562
- Abundance Lachnospiraceae/[Ruminococcus]/gnavus (pre, line r61): 375
- Abundance Erysipelotrichaceae/Allobaculum/— (pre, line r62): 286
- Abundance Desulfovibrionaceae/Desulfovibrio/C21_c20 (pre, line r63): 604
- Abundance S24-7/—/— (pre, line r64): 383
- Abundance Streptococcaceae/Lactococcus/garvieae (pre, line r66): 11
- Abundance Enterobacteriaceae/Proteus/— (pre, line r68): 0
- Abundance Lachnospiraceae/—/— (pre, line r69): 44
- Abundance S24-7/—/— (pre, line r70): 399
- Abundance Lachnospiraceae/[Ruminococcus]/gnavus (pre, line r71): 278
- Abundance Clostridiaceae/Clostridium/Other (pre, line r73): 707
- Abundance Lachnospiraceae/—/— (pre, line r74): 0
- Abundance Clostridiaceae/Other/Other (pre, line r75): 215
- Abundance Clostridiaceae/Other/Other (pre, line r77): 255
- Abundance S24-7/—/— (pre, line r78): 196
- Abundance Lachnospiraceae/[Ruminococcus]/gnavus (pre, line r79): 601
- Abundance Bacteroidaceae/Bacteroides/— (pre, line r80): 170
